This passage reports IC50 and Emax results from patent US20230310629A1, “BISPECIFIC ANTIBODY-DRUG CONJUGATES TARGETING EGFR AND MUC1 AND USES THEREOF” (Merck Patent GmbH, priority 2020, published 2023).

Structures are written as SMILES.

Assay [1] deals with NCI-H1975 cells. In words: cells. Particulars: Homo sapiens. It is filed as cell-based. On the procedure:
(§1) NSCLC cells NCI-H292 (EGFR wild type (wt)), HCC827 (EGFR del E746-A750), and NCI-H1975 (EGFR L858R/T790M) were all purchased from ATCC. NCI-H292 and NCI-H1975 were cultured in RPMI1640 media with stable L-glutamine (Millipore® Sigma), 10% FBS (Millipore® Sigma) and 1 mM sodium pyruvate (Gibco®, Thermo Fisher Scientific®, or Millipore® Sigma). HCC827 cells were cultured in RPMI1640 media with stable 2 mM L-glutamine, 2.5 g/L D-(+)-glucose solution (Millipore® Sigma), 10 mM HEPES (Millipore® Sigma), 10% FBS, and 1 mM sodium pyruvate (Gibco®, Thermo Fisher Scientific®, or Millipore® Sigma).
(§2) For cytotoxicity testing, cell monolayers were washed once with Gibco® D-PBS (Thermo Fisher Scientific®) and detached from the cell culture flask using Accutase® (Millipore® Sigma). Viable cells were counted with the automated cell counter LUNA-FL™ (Logos Biosystems) using 0.4% Gibco® trypan blue solution (Thermo Fisher Scientific®). A total of 625 cells (NCI-H292), 1250 cells (NCI-H1975) or 3000 cells (HCC827) were plated in 90 μl cell culture medium per well of a 96-well black/clear flat bottom TC-treated imaging microplate (Corning®) and cultured overnight. A ten-fold starting concentration of ADCs or compounds and a respective serial dilution (1:4) were prepared in cell culture medium briefly before use. Wells were supplied with 10 μl ADC or compound solution. Treatment was performed in technical triplicates. […] Untreated control cells for ADCs or EGFR tyrosine kinase inhibitors (TKIs) received a corresponding amount of dilution media or dimethylsulfoxide (DMSO; Millipore Sigma), respectively. For subsequent cell viability measurement, 100 μl Cell Titer-Glo® reagent (Promega™ Corp, Madison, WI, USA) was pipetted in each well, and plates were further processed according the manufacturer's instructions.

For assay [2], the system named is NCI-H292 cells. The assay is described as follows: cells. The format is cell-based. Particulars: Homo sapiens. The procedure: as §1, §2

What is called IC50 is the concentration at which inhibition is half-maximal. Take `C=CC(=O)Nc1cc(Nc2nccc(-c3cn(C)c4ccccc34)n2)c(OC)cc1N(C)CCN(C)C` [Molecule 15, osimertinib]: the IC50 in assay [1] (NCI-H1975, […], read-out: Geomean IC50) amounted to […]; in assay [2] (NCI-H292, […], read-out: Geomean IC50), 0.57 µM. Moreover, the Emax stood at […] in assay [1] (NCI-H1975, read-out: geomean span (% efficacy)) and […] in assay [2] (NCI-H292, read-out: geomean span (% efficacy)).
